The record followed here is US20110165115A1, “SYNERGISTIC ATTRACTANTS FOR PESTIFEROUS SOCIAL INSECTS” (STERLING INTERNATIONAL INC., priority 2010, published 2011).

In experiment [1] the test system is Polistes dominulus worker antennae. As to the kind of experiment: GC-EAD of cherry branch aeration samples. On the procedure:
Lapin cherry branches with severely damaged cherries and leaves and undamaged or slightly damaged branches were collected from a cherry orchard at Creston, Canada, on Jul. 29, 2009, and were transported to the Sterling International, Inc. lab (Spokane, Wash.) on the same day and kept at 4° C. before aerations. Headspace volatiles from the cherry branches (damaged or undamaged) were sampled by a battery operated pump and a high density polyacetate oven bag (48.2×59.6 cm Reynolds® Oven Bag; Richmond, Va., USA) enclosure with one activated charcoal filter tube in the air inlet, on Jul. 30, 2009. The volatiles in the enclosure were trapped on one Porapak Q tube (50/80 mesh; 30 mg in Teflon tube: 3 mm×35 mm) for 2.5 hr (airflow 300 ml/min) and extracted with 1 ml redistilled pentane. Aeration samples of the cherry branches (damaged or undamaged/slightly damaged) were injected (3 μl) splitless into a Varian CP-3800 GC equipped with a polar column (HP-INNOWax; 30 m×0.53 mm×1.0 μm film thickness; […] Helium was used as the carrier gas, and the injector and detector temperatures were 250° C. and 300° C., respectively. Column temperature was 50° C. for 1 min, rising to 240° C. at 10° C./min, and then held for 10 min. The outlet for the EAD was held in a humidified air stream flowing at 0.5 m/sec over the antennal preparation. EAD recordings were made using silver wire-glass capillary electrodes filled with Beadle-Ephrussi Ringer on freshly cut antennae. The antennal signals were stored and analyzed on a PC equipped with a serial IDAC interface box and the program EAD ver. 2.5 (Syntech, Hilversum, The Netherlands). […] (See FIG. 2.) The same chemicals were also tested on beneficial insect antennae from Chrysopa oculata, Myrmeleon crudelis, Podisus maculiventris, and Hippodarnia convergens. (See […] active peaks in the aeration samples were identified by GC-MS on an HP 6890 GC series coupled with an HP 5973 Mass Selective Detector using the same type of GC column and conditions as described above. Compounds were identified by comparison of retention times with those of authentic standards and with mass spectra of standards.

The test system of a further experiment is V. pensylvanica. Put plainly: Field trapping Experiment 1, Rescue W•H•Y traps. In kind it is in vivo, Vespula pensylvanica. The conditions noted are these: Exp 1; HIPV added to WHY attractant in the top chamber, or WHY alone. On the procedure: (§1) Three field trapping experiments were carried out during late July to early August 2009, in residential and woody areas around Spokane, Wash., USA, using the newly marketed Rescue® W•H•Y traps (www.rescue.com). As used herein, the W•H•Y trap is a trap in accordance with the description of United States Patent Application Publication No. 2009/0151228. The W•H•Y trap has a top chamber and a bottom chamber. The top chamber is baited with two attractants—one of which is a solid contained in a vial (2-methyl-1-butanol) and the other a liquid mixed with water (acetic acid), herein referred to as the W•H•Y top attractant. The bottom chamber is baited with a liquid attractant (heptyl butyrate) poured onto a cotton pad, herein referred to as the W•H•Y bottom attractant. Separation of the top and bottom attractants (otherwise antagonistic to each other when released from the same chamber) in two chambers was a design feature of this trap and creates two focal attraction sources from one trap for different species of wasps, hornets, and yellowjackets. Traps were hung 1.5-2.0 m above the ground on either the fence or tree branches ca. 5 m apart within each trap line. For each trapping experiment, six sets of traps were deployed with their initial trap positions within each set being randomized. To minimize positional effects and obtain more replications, wasp collections and trap re-randomization were carried out when ≧10-20 wasps were caught in the best trap. Each replicate lasted several days depending on wasp flight activity. Captured wasps were removed from the traps and kept in the zip-bags before taking back to the laboratory for recording of the species, gender status, and catch.
(§2) Experiment 3 (Aug. 5-13, 2009) was conducted to determine the potential behavioral activity of different doses of (E)-4,8-dimethyl-1,3,7-nonatriene alone. The individual (or different doses) HIPVs were loaded into either polyethylene bags or centrifuge tube type of dispensers, and released from the top of the W•H•Y trap chamber. W•H•Y trap attractants (both top and bottom or top only) alone and water (top chamber only) were included in the test as positive and blank controls, respectively. The dispenser types, loading and release rates of the tested semiochemicals are described in Tables 1, 2 and 3.
(§3) Trap catch data were converted to proportion (P) of total captured wasps within each replicate. Data were then transformed by arcsin√P to meet the assumptions of normality and homogeneity of variances for ANOVA. Means were compared by ANOVA followed by the Ryan-Einot-Gabriel-Welsh (REGW) multiple Q test (SPSS 16.0 for Windows) at α=0.05.

The test system of a further experiment is V. vulgaris. As to the kind of experiment: Field trapping Experiment 1, Rescue W•H•Y traps. In kind it is in vivo, Vespula vulgaris. The following applies: Exp 1; HIPV added to WHY attractant in the top chamber, or WHY alone. The protocol:
as §1, §2, §3

The next experiment concerns V. atropilosa. Format: in vivo, Vespula atropilosa. The conditions noted are these: Exp 1; HIPV added to WHY attractant in the top chamber, or WHY alone.
The test system of the next experiment is V. consobrina. Format: in vivo, Vespula consobrina. The conditions noted are these: Exp 1; HIPV added to WHY attractant in the top chamber, or WHY alone. The protocol:
as §1, with “catch. […]” for “catch.”
as §3

The subject of the next experiment is P. aurifer. Put plainly: Field trapping Experiment 1, Rescue W•H•Y traps. Format: in vivo, Polistes aurifer. The conditions noted are these: Exp 1; HIPV added to WHY attractant in the top chamber, or WHY alone. The protocol: as §1, §2, §3
The next experiment has as its system D. maculata. Put plainly: Field trapping Experiment 1, Rescue W•H•Y traps. Format: in vivo, Dolichovespula maculata. The conditions noted are these: Exp 1; HIPV added to WHY attractant in the top chamber, or WHY alone. On the procedure: as §1
(§4) Experiment 1 (Jul. 22-30, 2009) tested ten synthetic HIPV candidates [(E)-2-hexenal, (Z)-3-hexen-1-ol, (Z)-3-hexenyl acetate, cis-ocimene, linalool, methyl salicylate, geranyl acetate, trans-β-caryophyllene, trans-β-farnesene and (E)-4,8-dimethyl-1,3,7-nonatriene], including several paper wasp EAD-active compounds (see FIG. 2 for details), to determine their potential synergistic effect on the Rescue® W•H•Y trap attractants to paper wasps, yellowjackets, and hornets. Experiment 2 (Aug. 5-13, 2009) tested behavioral responses of the paper wasps and yellowjackets to the Rescue® W•H•Y trap attractants (top attractants only) and its combination with (E)-4,8-dimethyl-1,3,7-nonatriene, one of the EAD-active and behaviorally significant HIPVs, in a dose-response fashion. Experiment 3 (Aug. 5-13, 2009) was conducted to determine the potential behavioral activity of different doses of (E)-4,8-dimethyl-1,3,7-nonatriene alone. The individual (or different doses) HIPVs were loaded into either polyethylene bags or centrifuge tube type of dispensers, and released from the top of the W•H•Y trap chamber. W•H•Y trap attractants (both top and bottom or top only) alone and water (top chamber only) were included in the test as positive and blank controls, respectively. The dispenser types, loading and release rates of the tested semiochemicals are described in Tables 1, 2 and 3.
as §3

Another experiment relates to D. arenaria. Put plainly: Field trapping Experiment 1, Rescue W•H•Y traps. In kind it is in vivo, Dolichovespula arenaria. The following applies: Exp 1; HIPV added to WHY attractant in the top chamber, or WHY alone. On the procedure:
as §1, §4, §3

For a further experiment, the system named is P. dominulus. As to the kind of experiment: Field trapping Experiment 1, Rescue W•H•Y traps. In kind it is in vivo, Polistes dominulus. The following applies: Exp 1; HIPV added to WHY attractant in the top chamber, or WHY alone. On the procedure:
as §1, §2, §3

A further experiment has as its system V. acadica. As to the kind of experiment: Field trapping Experiment 1, Rescue W•H•Y traps. The following applies: Exp 1; HIPV added to WHY attractant in the top chamber, or WHY alone. In kind it is in vivo, Vespula acadica. The protocol: as §1, §2, §3
Experiment [2] concerns Podisus maculiventris antennae. As to the kind of experiment: GC-EAD of synthetic HIPVs on beneficial insect antennae. The conditions noted are these: FIG. 6. The protocol:
(§5) Aeration samples of the cherry branches (damaged or undamaged/slightly damaged) were injected (3 μl) splitless into a Varian CP-3800 GC equipped with a polar column (HP-INNOWax; 30 m×0.53 mm×1.0 μm film thickness; Agilent Technologies, Wilmington, Del., USA) and a 1:1 effluent splitter that allowed simultaneous flame ionization detection (FID) and electroantennographic detection (EAD) of the European paper wasp (Polistes dominulus) worker antennae to the separated volatile compounds. Helium was used as the carrier gas, and the injector and detector temperatures were 250° C. and 300° C., respectively. Column temperature was 50° C. for 1 min, rising to 240° C. at 10° C./min, and then held for 10 min. The outlet for the EAD was held in a humidified air stream flowing at 0.5 m/sec over the antennal preparation. EAD recordings were made using silver wire-glass capillary electrodes filled with Beadle-Ephrussi Ringer on freshly cut antennae. The antennal signals were stored and analyzed on a PC equipped with a serial IDAC interface box and the program EAD ver. 2.5 (Syntech, Hilversum, The Netherlands). In addition, GC-EAD responses to a synthetic mixture (100 ng/μl each) containing nine known HIPVs including cis-3-hexen-1-ol, cis-3-hexenyl acetate, trans-β-ocimene, (E)-4,8-dimethyl-1,3,7-nonatriene, linalool, methyl salicylate, geranyl acetate, trans-β-caryophyllene and trans-β-farnesene were tested on the P. dominulus workers. (See FIG. 2.) The same chemicals were also tested on beneficial insect antennae from Chrysopa oculata, Myrmeleon crudelis, Podisus maculiventris, and Hippodarnia convergens. (See FIG. 6.) Antennally active peaks in the aeration samples were identified by GC-MS on an HP 6890 GC series coupled with an HP 5973 Mass Selective Detector using the same type of GC column and conditions as described above. Compounds were identified by comparison of retention times with those of authentic standards and with mass spectra of standards.

Experiment [3] deals with Myrmeleon crudelis antennae. Described as above. The conditions noted are these: FIG. 6. The protocol: as §5
Experiment [4] has as its system Hippodarnia convergens antennae. The experiment is described as above. The following applies: FIG. 6. On the procedure:
as §5

Experiment [5] deals with Chrysopa oculata antennae. Described as above. The conditions noted are these: FIG. 6. On the procedure: as §5
Experiment [6] concerns paper wasps and yellowjackets. As to the kind of experiment: Field trapping bioassays, synergism with AA/2MB (summary). In kind it is in vivo. The conditions noted are these: at the doses tested. The protocol:
as §1
Experiment 3 (Aug. 5-13, 2009) was conducted to determine the potential behavioral activity of different doses of (E)-4,8-dimethyl-1,3,7-nonatriene alone. The individual (or different doses) HIPVs were loaded into either polyethylene bags or centrifuge tube type of dispensers, and released from the top of the W•H•Y trap chamber. […]

In experiment [7] the test system is P. dominulus workers antennae. Put plainly: GC-EAD of synthetic mixture of known HIPVs. More on the design: species or system Polistes dominulus. The following applies: 100 ng/μl each in hexane. The protocol: as §5
Where [8] appears, read: aeration of severely damaged cherry branches, at current release rates.
Where [9] appears, read: aeration of undamaged or slightly damaged cherry branches.

On to `C=C/C(C)=C/C/C=C(\C)CCC=C(C)C` [α-farnesene], for which the “EAD response of worker antennae” value in experiment [1] (setting [8]) was “did not elicit significant EAD-responses”.

`CCC/C=C/COC(C)=O` [(E)-2-hexenyl acetate]: in experiment [1] (setting [9]), the “EAD response of worker antennae” value is “strongly responded”.

As for `Cc1ccc(C(C)C)cc1` [p-cymene], the “EAD response of worker antennae” value in experiment [1] (setting [8]) is “did not elicit significant EAD-responses”.

`CCCCCCCCC=O` [nonanal]: the entries for the “EAD response of worker antennae” value in experiment [1] (setting [8]) and in experiment [1] (setting [9]) were “repeatable antennal response” and “strongly responded”, respectively.

Turning to `CCC/C=C/C=O` [E-2-Hexenal, (E)-2-hexenal], in the experiment with V. pensylvanica, the “Total Yellowjacket Catches V. pensylvanica” value is reported as 423. Also, the “Total Yellowjacket Catches V. vulgaris” value in the experiment with V. vulgaris is 44. Further, in the experiment with V. atropilosa, the “Total Yellowjacket Catches V. atropilosa” value was 3. Moreover, the “Total Yellowjacket Catches V. consobrina” value in the experiment with V. consobrina turned out to be 0. The “Total Paper Wasps P. aurifer” value with P. aurifer is given as 8. In the experiment on D. maculata, the “Total Yellowjacket Catches D. maculata” value is recorded as 2. For the same compound, the “Total Yellowjacket Catches D. arenaria” value in the experiment on D. arenaria turned out to be 4. The “Total Paper Wasps P. dominulus” value in the experiment on P. dominulus stood at 19. Also, the “Total Yellowjacket Catches V. acadica” value in the experiment with V. acadica is on record as 0.

As to `C=C/C(C)=C/CC=C(C)C` [β-ocimene, trans-β-ocimene], the EAD-response entry in experiment [2], in experiment [3], in experiment [4] and in experiment [5] was “strong EAD-responses” in each case. Besides, in experiment [6], the “synergism of attraction to mixture of acetic acid and 2-methyl-1-butanol” value was “significantly synergize”. In experiment [7], the “EAD response of worker antennae” value is “responded consistently”.

In the case of `C=CC(C)(O)CCC=C(C)C` (stereo not shown) [Linalool, linalool], the “Total Yellowjacket Catches V. pensylvanica” value in the experiment on V. pensylvanica is 291. The “Total Yellowjacket Catches V. vulgaris” value in the experiment with V. vulgaris is listed as 32. Besides, in the experiment on V. atropilosa, the “Total Yellowjacket Catches V. atropilosa” value is 0. Further, the “Total Yellowjacket Catches V. consobrina” value in the experiment with V. consobrina was 0. Further, the “Total Paper Wasps P. aurifer” value in the experiment on P. aurifer is 13. For the same compound, the “Total Yellowjacket Catches D. maculata” value in the experiment on D. maculata was determined as 1. Also, the “Total Yellowjacket Catches D. arenaria” value with D. arenaria was determined as 0. Further, the “EAD response of worker antennae” value in [7] was “responded consistently”. Further, the “Total Paper Wasps P. dominulus” value in the experiment with P. dominulus came to 46. In the experiment on V. acadica, the “Total Yellowjacket Catches V. acadica” value is reported as 0.

Consider `C=C/C=C(/C)CCC=C(C)C` [(Z)-4,8-dimethyl-1,3,7-nonatriene], for which, in [7], the “EAD response of worker antennae” value is on record as “responded consistently”.
